Source: ChEMBL document CHEMBL1201862, “PubChem BioAssay data set” (2004)
The source made the active and inactive calls.

How the values were obtained:
[1] = cytotoxicity toward NIH3T3 fibroblasts, dose response, counter-screen, cell-based, ATP luminescence, mouse fibroblasts (AID 2010); type: functional;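 further: cells exposed to compound for about 90 hours before reading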
[2] = target: T1, E3 ubiquitin-protein ligase XIAP (Homo sapiens, UniProt P98170); test: Counter Screen using XIAP-Bir3 for Chemical Antagonists of Bir1/2 domains of IAP-family anti-apoptotic proteins. [Related pubchem assays (depositor defined):AID1018, AID1449, AID1514, AID1638, AID1749, AID1750, AID488957, AID488963]
T1 sequence (P98170 whole entry): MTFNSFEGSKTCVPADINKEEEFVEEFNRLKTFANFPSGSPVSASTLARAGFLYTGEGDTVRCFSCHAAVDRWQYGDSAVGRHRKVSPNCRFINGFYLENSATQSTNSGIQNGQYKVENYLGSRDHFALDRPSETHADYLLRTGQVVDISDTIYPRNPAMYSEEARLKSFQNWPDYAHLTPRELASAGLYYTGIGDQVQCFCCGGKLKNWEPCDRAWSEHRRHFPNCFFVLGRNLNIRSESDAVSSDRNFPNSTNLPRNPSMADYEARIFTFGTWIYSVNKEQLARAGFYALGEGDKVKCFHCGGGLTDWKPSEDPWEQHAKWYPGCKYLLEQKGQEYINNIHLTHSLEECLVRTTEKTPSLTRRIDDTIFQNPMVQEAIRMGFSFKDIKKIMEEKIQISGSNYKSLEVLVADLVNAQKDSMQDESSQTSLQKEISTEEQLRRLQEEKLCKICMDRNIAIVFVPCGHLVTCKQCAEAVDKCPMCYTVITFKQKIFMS

[3] = inhibitors of intracellular T. cruzi replication, confirmation, NIH3T3 host cells, beta-gal luminescence (AID 2044); type: functional, cell-based;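 further: intracellular parasites grown in NIH/3T3 mouse fibroblasts as host cells; luminescent beta-galactosidase reporter signal from transgenic T. cruzi replicating inside host cells; inhibitors lower the luminescence signal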
[4] = target: T1, E3 ubiquitin-protein ligase XIAP; test: XIAP antagonists, biochemical, IAP family, fluorescence polarization (AID 1018); type: functional
[5] = target: Cytochrome P450 2C9 (Homo sapiens, UniProt P11712)
Cytochrome P450 2C9, sequence (P11712 whole entry): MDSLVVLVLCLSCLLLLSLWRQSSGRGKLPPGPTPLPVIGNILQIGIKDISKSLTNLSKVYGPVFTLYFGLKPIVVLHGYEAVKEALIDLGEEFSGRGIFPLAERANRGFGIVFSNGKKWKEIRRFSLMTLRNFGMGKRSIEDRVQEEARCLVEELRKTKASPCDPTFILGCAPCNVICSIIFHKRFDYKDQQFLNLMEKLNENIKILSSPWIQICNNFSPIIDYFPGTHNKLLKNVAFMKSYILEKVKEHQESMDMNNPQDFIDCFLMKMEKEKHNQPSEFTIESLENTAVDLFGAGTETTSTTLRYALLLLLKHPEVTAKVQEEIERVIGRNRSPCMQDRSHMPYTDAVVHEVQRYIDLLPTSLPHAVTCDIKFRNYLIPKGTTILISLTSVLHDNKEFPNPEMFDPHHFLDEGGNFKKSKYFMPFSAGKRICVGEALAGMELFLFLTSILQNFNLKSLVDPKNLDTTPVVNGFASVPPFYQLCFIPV

[6] = target: Cytochrome P450 3A4 (Homo sapiens, UniProt P08684);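 further: CYP3A4 tested as one member of a cytochrome P450 panel screen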
Cytochrome P450 3A4, sequence (P08684 whole entry): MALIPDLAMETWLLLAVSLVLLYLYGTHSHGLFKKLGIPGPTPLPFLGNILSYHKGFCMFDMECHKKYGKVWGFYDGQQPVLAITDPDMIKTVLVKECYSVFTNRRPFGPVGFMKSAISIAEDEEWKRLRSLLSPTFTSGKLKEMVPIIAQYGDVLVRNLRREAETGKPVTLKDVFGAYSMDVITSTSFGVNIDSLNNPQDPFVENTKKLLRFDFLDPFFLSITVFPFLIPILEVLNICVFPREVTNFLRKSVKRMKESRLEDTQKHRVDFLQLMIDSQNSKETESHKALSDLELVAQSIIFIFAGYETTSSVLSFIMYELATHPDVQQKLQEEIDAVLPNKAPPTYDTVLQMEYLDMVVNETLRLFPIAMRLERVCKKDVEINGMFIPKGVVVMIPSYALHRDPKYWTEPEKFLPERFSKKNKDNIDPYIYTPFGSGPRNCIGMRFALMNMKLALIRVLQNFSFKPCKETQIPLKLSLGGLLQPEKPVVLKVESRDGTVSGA

[7] = target: Large T antigen (Simian virus 40, UniProt P03070); type: functional, Betapolyomavirus macacae;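 further: Confirmatory-stage PubChem screen for compounds that inhibit SV40 T antigen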
Large T antigen, sequence (P03070 whole entry): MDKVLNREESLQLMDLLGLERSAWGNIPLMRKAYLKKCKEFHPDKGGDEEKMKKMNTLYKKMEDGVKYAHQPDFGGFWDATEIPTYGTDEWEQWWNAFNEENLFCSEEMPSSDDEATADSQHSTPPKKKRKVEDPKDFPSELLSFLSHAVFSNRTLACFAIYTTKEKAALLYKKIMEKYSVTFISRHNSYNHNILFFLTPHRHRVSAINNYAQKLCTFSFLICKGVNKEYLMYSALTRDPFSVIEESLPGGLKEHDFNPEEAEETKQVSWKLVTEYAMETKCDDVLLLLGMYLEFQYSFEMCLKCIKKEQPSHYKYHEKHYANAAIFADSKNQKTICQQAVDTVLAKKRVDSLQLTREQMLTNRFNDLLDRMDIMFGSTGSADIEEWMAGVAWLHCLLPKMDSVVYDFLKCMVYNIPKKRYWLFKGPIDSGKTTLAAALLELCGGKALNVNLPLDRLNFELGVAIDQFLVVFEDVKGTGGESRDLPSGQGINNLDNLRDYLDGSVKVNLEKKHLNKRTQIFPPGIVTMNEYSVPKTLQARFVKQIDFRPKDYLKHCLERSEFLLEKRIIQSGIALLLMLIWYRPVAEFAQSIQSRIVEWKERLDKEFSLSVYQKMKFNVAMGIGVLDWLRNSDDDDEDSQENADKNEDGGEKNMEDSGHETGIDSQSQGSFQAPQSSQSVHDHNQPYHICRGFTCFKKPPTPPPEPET

[8] = Luminescence Cell-Based Dose Retest to Confirm Inhibitors of Cancer Stem Cells. [Related pubchem assays (depositor defined):AID2717, AID2721]; type: functional; details: Homo sapiens
[9] = target: Neurotensin receptor type 1 (Homo sapiens, UniProt P30989); type: functional;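 further: Image-based confirmatory dose-response assay measuring agonist activity at NTR1; NTR1-expressing U2OS osteosarcoma cells imaged for beta-arrestin GFP spot formation; agonist potency where compounds increase beta-arrestin recruitment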
Neurotensin receptor type 1, sequence (P30989 whole entry): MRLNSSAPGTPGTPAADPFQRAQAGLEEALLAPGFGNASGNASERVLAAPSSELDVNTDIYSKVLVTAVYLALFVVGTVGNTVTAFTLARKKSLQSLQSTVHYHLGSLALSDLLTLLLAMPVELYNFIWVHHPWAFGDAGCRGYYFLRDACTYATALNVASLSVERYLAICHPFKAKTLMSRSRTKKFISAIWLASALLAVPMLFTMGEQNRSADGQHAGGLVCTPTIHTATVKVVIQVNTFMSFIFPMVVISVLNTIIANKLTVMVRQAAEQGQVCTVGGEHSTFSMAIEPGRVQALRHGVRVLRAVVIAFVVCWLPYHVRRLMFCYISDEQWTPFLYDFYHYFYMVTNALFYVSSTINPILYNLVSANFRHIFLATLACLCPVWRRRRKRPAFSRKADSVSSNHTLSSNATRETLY

[10] = target: T2, Histone-lysine N-methyltransferase NSD2 (Homo sapiens, UniProt O96028); type: biochemical
T2 sequence (O96028 whole entry): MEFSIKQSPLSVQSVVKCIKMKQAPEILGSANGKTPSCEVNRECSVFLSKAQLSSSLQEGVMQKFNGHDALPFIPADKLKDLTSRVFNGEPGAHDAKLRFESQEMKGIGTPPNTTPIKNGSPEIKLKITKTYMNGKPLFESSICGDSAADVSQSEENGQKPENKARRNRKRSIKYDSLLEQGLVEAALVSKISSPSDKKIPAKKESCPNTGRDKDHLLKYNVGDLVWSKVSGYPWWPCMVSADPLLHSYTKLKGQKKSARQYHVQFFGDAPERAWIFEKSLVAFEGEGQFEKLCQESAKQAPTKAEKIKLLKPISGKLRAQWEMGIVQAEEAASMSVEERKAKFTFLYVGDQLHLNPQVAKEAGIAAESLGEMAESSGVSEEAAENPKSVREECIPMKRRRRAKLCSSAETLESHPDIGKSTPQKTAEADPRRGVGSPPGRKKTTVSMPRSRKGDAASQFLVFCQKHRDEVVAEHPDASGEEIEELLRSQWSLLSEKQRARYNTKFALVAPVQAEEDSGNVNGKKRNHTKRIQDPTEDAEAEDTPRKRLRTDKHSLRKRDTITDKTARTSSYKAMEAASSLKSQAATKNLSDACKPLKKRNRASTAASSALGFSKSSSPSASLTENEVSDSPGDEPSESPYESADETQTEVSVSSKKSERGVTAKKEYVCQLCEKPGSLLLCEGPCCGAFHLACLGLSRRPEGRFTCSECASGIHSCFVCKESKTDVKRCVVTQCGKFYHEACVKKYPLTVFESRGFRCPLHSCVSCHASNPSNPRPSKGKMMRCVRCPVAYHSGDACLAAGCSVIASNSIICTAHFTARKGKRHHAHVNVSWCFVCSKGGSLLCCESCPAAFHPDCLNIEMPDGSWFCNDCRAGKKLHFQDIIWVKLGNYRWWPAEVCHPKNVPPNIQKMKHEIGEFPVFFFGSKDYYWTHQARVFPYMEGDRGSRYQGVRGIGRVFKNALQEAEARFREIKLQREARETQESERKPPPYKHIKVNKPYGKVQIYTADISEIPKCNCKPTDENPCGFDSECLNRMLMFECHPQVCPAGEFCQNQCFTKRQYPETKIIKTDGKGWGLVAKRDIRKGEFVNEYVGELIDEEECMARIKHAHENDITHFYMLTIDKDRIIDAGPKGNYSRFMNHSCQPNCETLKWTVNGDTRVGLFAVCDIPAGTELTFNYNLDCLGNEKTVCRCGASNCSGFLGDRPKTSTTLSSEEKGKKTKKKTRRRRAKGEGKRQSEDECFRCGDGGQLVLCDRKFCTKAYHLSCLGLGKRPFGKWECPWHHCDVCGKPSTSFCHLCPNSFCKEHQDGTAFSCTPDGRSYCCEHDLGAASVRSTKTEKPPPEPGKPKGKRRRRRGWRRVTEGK

[11] = target: T3, Cytochrome P450 1A2 (Homo sapiens, UniProt P05177);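 further: PubChem cytochrome P450 panel assay, CYP1A2 panel member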
T3 sequence (P05177 whole entry): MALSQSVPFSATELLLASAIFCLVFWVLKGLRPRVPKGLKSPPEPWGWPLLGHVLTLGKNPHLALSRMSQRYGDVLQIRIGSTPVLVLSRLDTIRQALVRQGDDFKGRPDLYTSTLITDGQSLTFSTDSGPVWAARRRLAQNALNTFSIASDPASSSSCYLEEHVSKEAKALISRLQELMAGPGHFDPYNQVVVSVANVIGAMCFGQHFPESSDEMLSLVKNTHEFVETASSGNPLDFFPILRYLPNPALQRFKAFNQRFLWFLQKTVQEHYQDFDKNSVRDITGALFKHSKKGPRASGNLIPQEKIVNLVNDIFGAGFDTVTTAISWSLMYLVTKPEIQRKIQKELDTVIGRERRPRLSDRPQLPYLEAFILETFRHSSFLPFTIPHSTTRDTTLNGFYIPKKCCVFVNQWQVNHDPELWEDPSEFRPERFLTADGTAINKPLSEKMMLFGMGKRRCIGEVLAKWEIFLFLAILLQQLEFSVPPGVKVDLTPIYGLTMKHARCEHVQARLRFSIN

[12] = target: Cytochrome P450 2C19 (Homo sapiens, UniProt P33261); test: Cytochrome panel assay with activity outcomes. Panel member name: p450-cyp2c19 Compounds with AC50 equal or less than 10 uM are considered active; type: functional; details: read-out: AC50
Cytochrome P450 2C19, sequence (P33261 whole entry): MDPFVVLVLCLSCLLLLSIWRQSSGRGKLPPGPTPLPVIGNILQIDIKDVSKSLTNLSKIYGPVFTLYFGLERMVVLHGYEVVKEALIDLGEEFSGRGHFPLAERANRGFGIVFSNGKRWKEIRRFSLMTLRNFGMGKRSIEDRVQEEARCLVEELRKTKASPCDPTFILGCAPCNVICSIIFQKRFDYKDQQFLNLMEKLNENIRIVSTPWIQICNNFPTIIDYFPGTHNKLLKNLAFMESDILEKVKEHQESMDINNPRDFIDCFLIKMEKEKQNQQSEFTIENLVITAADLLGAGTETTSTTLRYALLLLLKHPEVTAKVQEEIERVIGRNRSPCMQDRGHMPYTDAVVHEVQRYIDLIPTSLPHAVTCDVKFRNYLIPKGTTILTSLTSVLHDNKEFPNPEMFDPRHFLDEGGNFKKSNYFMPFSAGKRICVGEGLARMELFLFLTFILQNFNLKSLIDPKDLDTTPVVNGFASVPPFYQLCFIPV

[13] = target: Intestinal-type alkaline phosphatase (Homo sapiens, UniProt P09923); test: Dose Response confirmation of uHTS hits from a small molecule inhibitors of human intestinal alkaline phosphatase via a luminescent assay. [Related pubchem assays (depositor defined):AID2544, AID2574]; type: functional
Intestinal-type alkaline phosphatase, sequence (P09923 whole entry): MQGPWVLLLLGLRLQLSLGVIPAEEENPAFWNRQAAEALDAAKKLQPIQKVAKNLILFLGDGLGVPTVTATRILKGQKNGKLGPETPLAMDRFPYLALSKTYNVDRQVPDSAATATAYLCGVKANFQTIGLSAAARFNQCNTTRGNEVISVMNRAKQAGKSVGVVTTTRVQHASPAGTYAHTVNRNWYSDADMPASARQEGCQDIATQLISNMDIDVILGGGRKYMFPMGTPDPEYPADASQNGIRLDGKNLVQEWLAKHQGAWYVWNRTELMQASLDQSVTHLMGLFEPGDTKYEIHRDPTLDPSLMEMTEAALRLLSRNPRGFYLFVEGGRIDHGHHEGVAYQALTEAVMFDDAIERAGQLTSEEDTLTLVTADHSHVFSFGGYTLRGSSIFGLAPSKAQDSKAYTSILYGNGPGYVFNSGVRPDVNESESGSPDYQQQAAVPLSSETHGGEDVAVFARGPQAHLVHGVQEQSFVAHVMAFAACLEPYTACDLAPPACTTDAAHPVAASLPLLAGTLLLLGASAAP

[14] = target: T4, C-C chemokine receptor type 6 (Homo sapiens, UniProt P51684); test: CCR6 receptor antagonists, dose response, cell-based, luminescent beta-arrestin readout (AID 504728); type: functional
T4 sequence (P51684 whole entry): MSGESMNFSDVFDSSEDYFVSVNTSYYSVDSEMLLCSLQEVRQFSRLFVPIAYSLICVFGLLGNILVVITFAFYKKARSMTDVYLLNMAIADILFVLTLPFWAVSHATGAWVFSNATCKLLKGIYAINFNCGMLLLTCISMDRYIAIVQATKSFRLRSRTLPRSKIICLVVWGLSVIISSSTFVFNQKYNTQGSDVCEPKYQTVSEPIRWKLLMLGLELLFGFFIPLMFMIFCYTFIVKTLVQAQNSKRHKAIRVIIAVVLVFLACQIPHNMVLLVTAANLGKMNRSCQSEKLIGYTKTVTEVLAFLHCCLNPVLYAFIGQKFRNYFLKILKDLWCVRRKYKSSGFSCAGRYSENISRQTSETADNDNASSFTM

[15] = cells; type: functional
[16] = target: Beta-galactosidase (Escherichia coli, UniProt Q8VNN2); test: beta-galactosidase enzyme inhibitors and activators, dose response, artefact control for CCR6 antagonist project, biochemical, E. coli enzyme, set 3 (AID 504712); type: functional
Beta-galactosidase, sequence (Q8VNN2 whole entry): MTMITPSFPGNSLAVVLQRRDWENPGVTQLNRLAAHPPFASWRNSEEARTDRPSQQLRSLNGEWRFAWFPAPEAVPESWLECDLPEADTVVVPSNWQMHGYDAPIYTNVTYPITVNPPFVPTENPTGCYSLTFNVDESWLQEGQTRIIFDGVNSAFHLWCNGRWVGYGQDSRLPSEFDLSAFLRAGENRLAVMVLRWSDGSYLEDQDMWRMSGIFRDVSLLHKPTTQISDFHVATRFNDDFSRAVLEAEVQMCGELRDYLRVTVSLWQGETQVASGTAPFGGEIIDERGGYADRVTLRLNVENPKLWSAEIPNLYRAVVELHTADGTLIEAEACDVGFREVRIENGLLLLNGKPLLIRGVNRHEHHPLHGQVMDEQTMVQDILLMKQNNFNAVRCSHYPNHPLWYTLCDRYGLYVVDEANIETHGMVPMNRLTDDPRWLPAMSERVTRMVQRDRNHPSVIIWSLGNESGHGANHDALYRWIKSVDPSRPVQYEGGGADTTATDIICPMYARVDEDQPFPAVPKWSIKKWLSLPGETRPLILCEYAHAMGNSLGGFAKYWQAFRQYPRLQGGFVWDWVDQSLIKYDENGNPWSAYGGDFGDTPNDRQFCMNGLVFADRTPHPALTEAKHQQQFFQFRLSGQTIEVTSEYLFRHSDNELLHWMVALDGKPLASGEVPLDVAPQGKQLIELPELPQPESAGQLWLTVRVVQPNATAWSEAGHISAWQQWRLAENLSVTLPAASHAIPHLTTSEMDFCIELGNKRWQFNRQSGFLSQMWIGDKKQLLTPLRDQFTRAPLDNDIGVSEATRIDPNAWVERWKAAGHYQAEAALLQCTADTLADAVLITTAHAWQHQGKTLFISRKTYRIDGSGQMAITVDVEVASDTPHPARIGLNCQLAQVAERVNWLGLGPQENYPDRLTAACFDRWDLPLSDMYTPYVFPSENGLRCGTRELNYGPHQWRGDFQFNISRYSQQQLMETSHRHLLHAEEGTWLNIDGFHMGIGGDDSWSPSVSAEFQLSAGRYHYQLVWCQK

[17] = THP-1 cell cytotoxicity, dose response, cytotoxicity control for non-replicating M. tuberculosis project (AID 489025); type: functional
[18] = target: T5, Streptokinase A (Streptococcus pyogenes serotype M1, UniProt P10520); test: S. pyogenes streptokinase expression inhibitors, potency, dose response, plasminogen activation absorbance, OD405 (AID 1914); type: functional, Streptococcus pyogenes M1 GAS;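 further: secreted streptokinase activity via plasminogen activation per viability signal from cell pellet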
T5 sequence (P10520 whole entry): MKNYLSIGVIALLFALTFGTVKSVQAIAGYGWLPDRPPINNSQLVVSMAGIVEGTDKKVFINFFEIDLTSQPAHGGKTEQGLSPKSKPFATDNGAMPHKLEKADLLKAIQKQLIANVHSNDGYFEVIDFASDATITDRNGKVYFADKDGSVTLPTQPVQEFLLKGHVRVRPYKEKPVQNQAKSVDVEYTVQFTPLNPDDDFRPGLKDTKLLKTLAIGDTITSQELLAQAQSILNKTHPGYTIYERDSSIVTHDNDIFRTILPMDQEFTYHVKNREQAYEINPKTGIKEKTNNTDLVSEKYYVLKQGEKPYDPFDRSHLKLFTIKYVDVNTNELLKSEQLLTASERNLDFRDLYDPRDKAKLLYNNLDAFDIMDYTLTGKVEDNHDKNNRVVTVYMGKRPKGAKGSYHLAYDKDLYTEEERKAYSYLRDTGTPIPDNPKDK

[19] = target: Heat shock protein HSP 90-alpha (Homo sapiens, UniProt P07900); type: functional, organism-based
[20] = tested on: Streptococcus; test: Group A Streptococcus viability loss, dose response, counter-screen for streptokinase expression inhibitor project, luminescence, BacTiterGlo (AID 1915); type: functional, organism-based;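 further: potency for reduction of bacterial viability or growth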
[21] = tested on: Streptococcus sp. 'group A'; test: growth inhibition of control SK(-) GAS strain, dose response, counter-screen for streptokinase expression inhibitor project, luminescence, kanamycin, BacTiterGlo, confirmation (AID 1900); type: functional, organism-based
[22] = tested on: HEK293; test: cells; type: functional, cell-based; details: Homo sapiens
[23] = target: T6, Nuclear receptor subfamily 0 group B member 1 (Homo sapiens, UniProt P51843); test: Luminescence-based cell-based high throughput dose response assay for inhibitors of the orphan nuclear receptor subfamily 0, group B, member 1 (DAX1; NR0B1). [Related pubchem assays (depositor defined):AID504766, AID504790]; type: functional
T6 sequence (P51843 whole entry): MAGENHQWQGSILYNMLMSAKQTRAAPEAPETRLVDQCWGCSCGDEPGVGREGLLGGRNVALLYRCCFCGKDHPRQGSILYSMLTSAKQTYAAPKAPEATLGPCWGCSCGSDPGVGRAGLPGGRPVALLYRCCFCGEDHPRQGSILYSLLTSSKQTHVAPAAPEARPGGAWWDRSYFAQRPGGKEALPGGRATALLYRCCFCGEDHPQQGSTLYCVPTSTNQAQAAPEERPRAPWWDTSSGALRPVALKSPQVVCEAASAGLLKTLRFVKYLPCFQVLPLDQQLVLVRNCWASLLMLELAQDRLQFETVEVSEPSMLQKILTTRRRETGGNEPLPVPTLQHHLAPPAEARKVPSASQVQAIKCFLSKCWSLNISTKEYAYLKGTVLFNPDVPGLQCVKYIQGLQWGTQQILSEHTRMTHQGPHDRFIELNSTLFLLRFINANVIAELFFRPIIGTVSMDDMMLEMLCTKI

[24] = target: Dual specificity tyrosine-phosphorylation-regulated kinase 1A (Rattus norvegicus, UniProt Q63470); type: biochemical, Homo sapiens
[25] = target: G-protein coupled receptor 35 (Homo sapiens, UniProt Q9HC97); test: GPR35 antagonists blocking zaprinast-driven arrestin recruitment, primary screen, imaging, U2OS, beta-arrestin-GFP, zaprinast agonist (AID 2058); type: functional;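 further: antagonist potency meaning inhibition of agonist-induced arrestin redistribution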
G-protein coupled receptor 35, sequence (Q9HC97 whole entry): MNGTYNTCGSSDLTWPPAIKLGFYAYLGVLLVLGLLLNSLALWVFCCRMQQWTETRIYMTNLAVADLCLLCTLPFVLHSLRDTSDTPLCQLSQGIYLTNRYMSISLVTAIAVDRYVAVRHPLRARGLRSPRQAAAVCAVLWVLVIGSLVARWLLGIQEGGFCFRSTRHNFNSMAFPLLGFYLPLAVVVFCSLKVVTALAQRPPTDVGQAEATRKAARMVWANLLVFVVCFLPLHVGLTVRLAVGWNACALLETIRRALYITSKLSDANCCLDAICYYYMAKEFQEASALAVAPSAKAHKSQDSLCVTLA

## S=C(Nc1ccc(Br)cc1)N1CCn2cccc2C1c1cccnc1 (stereo unspecified)
[1]
  EC50: > 60 µM (not active)
[2]
  IC50: > 100 µM (inactive)
[3]
  EC50: 0.605 µM (active)
[4]
  IC50: > 100 µM (not active)

## CC(C)NC(=O)N1CCC2(CC1)CCN(C(=O)c1cc(C(F)(F)F)cc(C(F)(F)F)c1)CC2
[5]
  AC50: inconclusive
[6]
  AC50: inconclusive

## COc1cc(/C=C2\C(=O)ON=C2c2ccc(Cl)cc2)ccc1O
[7]
  IC50: 14.6 µM (active)
[8]
  AC50: 1.76 µM (active)
[9]
  EC50: 12.1 µM (active)
[10]
  AC50: > 20 µM (inactive)

## O=C(c1cc(-c2ccccc2Cl)on1)N1CCN(C(=O)c2ccco2)CC1
[11]
  AC50: 25.1 µM (inconclusive)
[12]
  AC50: 25.1 µM (inconclusive)
[5]
  AC50: inconclusive
[6]
  AC50: inconclusive

## COc1cc(/C=C/C(=O)OCC(=O)NC(=O)NC2CCCCC2)ccc1OC(F)F
[13]
  IC50: > 100 µM (inactive)

## CC1=C(/C=C/C(C)=N\NC(=O)c2ccncc2)C(C)(C)CCC1
[14]
  IC50: > 66.6 µM (inactive)
[15]
  IC50: 0.61 µM (active)
[16]
  IC50: > 66.6 µM (inactive)
[17]
  CC50: > 40 µM (active)

## Oc1ccc(/C=N/N(Cc2ccccc2)c2ccccc2)cc1
[18]
  EC50: > 150 µM (not active)
[19]
  AC50: 9.12 µM (active)
[20]
  EC50: 9.38 µM (active)
[21]
  EC50: 7.47 µM (active)

## Cn1c(NCc2ccccc2Cl)nc2ccccc21
[22]
  IC50: > 67.6 µM (inactive)
[23]
  IC50: > 67.6 µM (inactive)

## COc1ccccc1C1CN(c2ccccc2)N=C1c1cccs1 (stereo unspecified)
[13]
  IC50: > 100 µM (inactive)

## Cc1ccc(C(=C2C3C=CC2C2C(=O)NC(=O)C32)c2ccc(C)cc2)cc1 (stereo unspecified)
[14]
  IC50: > 66.6 µM (inactive)
[16]
  IC50: > 66.6 µM (inactive)

## C=C(C)[C@@H](O)COc1c2ccoc2cc2oc(=O)ccc12
[24]
  AC50: 9.08 µM (active)

## Cc1c2c(nc3c(C(=O)NC4CCCC4)cnn13)CCCC2
[12]
  AC50: 39.8 µM (inconclusive)
[6]
  AC50: inconclusive

## CS(=O)(=O)N1N=C(c2ccccc2)CC1c1ccc2c(c1)OCO2 (stereo unspecified)
[25]
  IC50: 1.42 µM (active)

## COc1ccccc1C1SCCN1S(=O)(=O)c1cccc(C(F)(F)F)c1 (stereo unspecified)
[2]
  IC50: > 100 µM (inactive)
[4]
  IC50: > 100 µM (not active)

## COc1ccc(-c2cc3nc(C)cc(C)n3n2)cc1
[22]
  IC50: > 67.5 µM (inactive)
[23]
  IC50: > 67.5 µM (inactive)
